Assay results published in patent publication US20240327432A1, “THIOPHENE-PHENOTHIAZINE COMPOUNDS AND SYNTHESIS METHOD THEREOF, AS WELL AS APPLICATION THEREOF IN PREPARATION OF PHOTOTHERAPY MEDICINES” (Guangzhou Medical University, priority 2023, published 2024).

How the values were obtained:
A549 cells [1] = test: Phototoxicity measurement (CCK-8), A549; type: cell-based, human; settings: for IC50: Homo sapiens, light or radiation study, 1 h incubation, 630 nm LED, 3.2 J cm^−2, then 24 h, read-out: PDK IC50 (phototoxicity)
Description: (§1) (1) Cell culture: HUVEC cells (human umbilical vein endothelial cells), A549 cells (human lung cancer cells), MCF-7 cells (human breast cancer cells), HeLa cells (human cervical cancer cells) and 4T1 cells (mouse breast cancer cells) were cultured in a DMEM high-glucose medium containing 10% fetal bovine serum and 1% penicillin-streptomycin at 37° C. and under a condition of a 5% carbon dioxide content. The HUVEC cells, the A549 cells, the MCF-7 cells, the HeLa cells and the 4T1 cells, at a logarithmic growth phase, were taken and inoculated into a 96-well plate, respectively, with approximately 1×10^4 cells per well, and incubation was performed overnight at 37° C. and under a condition of 5% CO2.
(§2) (3) Phototoxicity measurement: the cells were incubated in the dark with the compound of the present invention of different concentrations for 1 hour, rinsing was performed with PBS, a fresh culture solution was added, and the cells were irradiated with 630 nm LED light (light dose is 3.2 J cm^−2). Then the cells were incubated in the dark environment for 24 hours, and cell viability was measured by the CCK-8 method.

HUVEC cells = test: Dark toxicity measurement (CCK-8), HUVEC; type: cell-based; settings: Homo sapiens, 24 h in dark
Description: as §1
(§3) (2) Dark toxicity measurement: the cells were incubated in a dark environment with the compound of the present invention of different concentrations for 24 hours, and cell viability was measured by a CCK-8 method.

A549 cells [2] = test: Dark toxicity measurement (CCK-8), A549; type: cell-based; settings: Homo sapiens, 24 h in dark, read-out: DK IC50 (dark toxicity)
Description: as §1, §3

HeLa cells [3] = test: Phototoxicity measurement (CCK-8), HeLa; type: cell-based, human; settings: for IC50: Homo sapiens, light or radiation study, 1 h incubation, 630 nm LED, 3.2 J cm^−2, then 24 h, read-out: PDK IC50 (phototoxicity)
Description: as §1, §2

MCF-7 cells [4] = test: Phototoxicity measurement (CCK-8), MCF-7; type: cell-based, human; settings: for IC50: Homo sapiens, MCF7, light or radiation study, 1 h incubation, 630 nm LED, 3.2 J cm^−2, then 24 h, read-out: PDK IC50 (phototoxicity)
Description: as §1, §2

4T1 cells [5] = test: Phototoxicity measurement (CCK-8), 4T1; type: cell-based, mouse; settings: for IC50: 1 h incubation, 630 nm LED, 3.2 J cm^−2, then 24 h, read-out: PDK IC50 (phototoxicity)
Description: as §1, §2

4T1 cells [6] = test: Dark toxicity measurement (CCK-8), 4T1; type: cell-based, mouse; settings: 24 h in dark, read-out: DK IC50 (dark toxicity)
Description: as §1, §3

[7] = Fluorescence emission spectrum; type: physicochemical; settings: for λem (maximum fluorescence emission wavelength): excitation 650 nm, solvent methanol; for ϕF (fluorescence quantum yield): ϕF of MB as reference (0.04, methanol)
Description: Detection of the thiophene-phenothiazine compounds prepared in Examples 1-5: the absorption spectrum of the thiophene-phenothiazine compound in an ethanol solution was measured by using a UV-visible spectrophotometer, and spectral properties of the thiophene-phenothiazine compound were analyzed according to Beer-Lambert law; […] with a wavelength of 650 nm, and results are shown in Table 1 and FIGS. 2-3.
(§4) • a. Absorbance was measured in ethanol. • b. During fluorescence emission spectrum measurement, an excitation wavelength was 650 nm, and a solvent was methanol. • c. ϕF of MB was used as a reference [ϕF=0.04, methanol].

HeLa cells [8] = test: Dark toxicity measurement (CCK-8), HeLa; type: cell-based; settings: Homo sapiens, 24 h in dark, read-out: DK IC50 (dark toxicity)
Description: as §1, §3

MCF-7 cells [9] = test: Dark toxicity measurement (CCK-8), MCF-7; type: cell-based; settings: Homo sapiens, MCF7, 24 h in dark, read-out: DK IC50 (dark toxicity)
Description: as §1, §3

[10] = Absorption spectrum by UV-visible spectrophotometer; type: physicochemical; settings: measured in ethanol
Description: Detection of the thiophene-phenothiazine compounds prepared in Examples 1-5: the absorption spectrum of the thiophene-phenothiazine compound in an ethanol solution was measured by using a UV-visible spectrophotometer, and spectral properties of the thiophene-phenothiazine compound were analyzed according to Beer-Lambert law; and a fluorescence emission spectrum of the thiophene-phenothiazine compound in the ethanol solution was measured under excitation of light with a wavelength of 650 nm, and results are shown in Table 1 and FIGS. 2-3.
as §4

4T1 subcutaneous tumors = test: Distribution in 4T1 subcutaneous tumors of mice (imaging); type: in vivo, BALB/c mice; settings: 1.6 mg/kg via tail vein
Description: (§5) 7-week-old BALB/c female mice weighing 18 g±1 g (purchased from Zhejiang Vital River Laboratory Animal Technology Co., Ltd) were used to construct a subcutaneous breast cancer (4T1) tumor model. When tumor volumes of the BALB/c mice were approximately 100 mm^3, in vivo anti-tumor experiments began. When the tumor volumes of the BALB/c mice were approximately 200 mm^3, imaging experiments began.
A solution of 10 mg/L was prepared from the compound I-3 of the present invention by using 1×PBS. The BALB/c mice with the tumor volumes of approximately 200 mm^3 were taken, and the solution was injected into tumor bearing mice via tail veins at a dose of 1.6 mg/kg. Imaging photos were taken at different times using Odyssey CLX, with excitation light of 680 nm and detection light of 720 nm. […] Therefore, the thiophene-phenothiazine compound of the present invention can be completely metabolized within 24 hours, effectively solving a metabolic problem in existing PDT treatment mentioned above.

[11] = Singlet oxygen generation, DPBF steady-state method; type: physicochemical; settings: 2 μM in EtOH, 630 nm LED, irradiation for 20 s
Description: The efficiency of producing singlet oxygen through photosensitization is an important index for evaluating the photosensitizers. In the example, a conventional steady-state method was used, 1,3-diphenylisobenzofuran (DPBF) was used as a scavenger, which irreversibly reacted with the singlet oxygen to cause attenuation of the DPBF. An attenuation rate of the DPBF reflects production efficiency of ^1O2. Concentrations of the DPBF in EtOH at multiple irradiation time periods were measured by using a UV/Vis spectrum method.

[12] = Photostability under continuous LED irradiation; type: physicochemical; settings: 630 nm LED, 106 mW cm^−2, FIG. 4
Description: Good photostability is a prerequisite for ensuring continuous generation of ROS by the photosensitizers under light excitation, which can effectively prevent decomposition of the photosensitizers after illumination, avoiding a decrease in a ROS generation rate with increasing illumination time. An LED light source (630 nm, 106 mW cm^−2) was used to continuously irradiate the compound (5 μM), and a UV-visible spectrophotometer was used to measure the absorption spectrum of the compound at 200-800 nm. The photostability of the compound was evaluated by comparing changes in maximum absorption values at 600-800 nm after different irradiation times.
Result diagrams of other compounds are similar to that of the compound I-3.

[13] = tested on: subcutaneous breast cancer (4T1) tumor model; test: In vivo PDT inhibition of breast cancer growth; set-up: species or system BALB/c mice; settings: 21 days
Excerpt: as §5
The BALB/c mice with the tumor volumes of approximately 100 mm^3 were taken, and the tumor bearing mice were divided into 4 groups, namely groups A, B, C and D, with 5 mice in each group. The mice in the group A and the group B were injected with 1×PBS 100 μL via tail veins. In addition, the mice in the group C and the group D were injected with compound I-3 via the tail veins at a dose of 1.6 mg/kg; and after 2 hours, the mice in the group B and the group D were irradiated with a light source (655 nm, 300 mW cm^2) for 10 minutes. Body weights and tumor volumes of the mice were measured on the 2nd day, 4th day, 8th day, 12th day, 16th day, and 21st day, respectively. On the 21st day, approximately 0.8 mL of mouse blood was collected using an eyeball blood sampling method, of which 0.4 mL of the mouse blood was placed in an EDTA-2K anticoagulant tube, and the remaining 0.4 mL of the mouse blood was centrifuged for serum collection.

[14] = Mus musculus, light or radiation study

SMILES | PI (phototherapeutic index) (A549 cells [1]) | IC50 (A549 cells [1]) [nM] | IC50 (HUVEC cells) [nM] | IC50 (A549 cells [2]) [nM] | PI (phototherapeutic index) (HeLa cells [3]) | IC50 (HeLa cells [3]) [nM] | PI (phototherapeutic index) (MCF-7 cells [4]) | IC50 (MCF-7 cells [4]) [nM] | PI (phototherapeutic index) (4T1 cells [5]) | IC50 (4T1 cells [5]; [14]) [nM] | IC50 (4T1 cells [6]; Mus musculus) [nM] | λem (maximum fluorescence emission wavelength) [7] [nm] | ϕF (fluorescence quantum yield) [7] | IC50 (HeLa cells [8]) [nM] | IC50 (MCF-7 cells [9]) [nM] | λmax (maximum absorption wavelength) [10] [nm] | further results
CCCCCCCNc1cc2c(c3sccc13)=Nc1ccc(N(CC)CC)cc1S=2Cl (stereo not drawn) [Compound I-5] | 8.57 | 420 | 7630 | 3570 | 3.32 | 430 | 7.11 | 470 | 2.22 | 1920 | 4270 | 700 | 0.6 | 1440 | 3340 | 674 | 
CCCNc1cc2c(c3sccc13)=Nc1ccc(N(CC)CC)cc1S=2Cl (stereo not drawn) [Compound I-3] | 31.35 | 210 | 13600 | 6590 | 32.72 | 70 | 24.00 | 120 | 44.51 | 190 | 8670 | 700 | 0.6 | 2400 | 2860 | 673 | time within which metabolized in mice (4T1 subcutaneous tumors): ≤ 24 h; time after which compound gradually accumulates in tumors (4T1 subcutaneous tumors; 4T1 tumor bearing mice): 1 h; time of maximum accumulation in the tumors (4T1 subcutaneous tumors; 4T1 tumor bearing mice): 2 h; imaging signal after 24 hours (4T1 subcutaneous tumors; 24 hours): basically not detected; photosensitive efficiency (1O2, DPBF attenuation) [11]: 80%; change of maximum absorption value as irradiation time increases (photostability) [12]: does not show a significant change; growth of tumor volumes ([13]; group C: 1.6 mg/kg i.v. alone, no irradiation): did not show tumor growth inhibition; growth of tumor volumes ([13]; group D: 1.6 mg/kg i.v. + light 655 nm, 10 minutes, after 2 hours): significantly inhibited
CCN(CC)c1ccc2c(c1)S(Cl)=c1cc(N)c3ccsc3c1=N2 (stereo not drawn) [Compound I-1] | 16.47 | 460 | 25200 | 7540 | 10.26 | 360 | 9.03 | 390 | 17.69 | 870 | 15400 | 692 | 0.4 | 3740 | 3560 | 663 | 
CN(C)c1ccc2nc3ccc(=[N+](C)C)cc-3sc2c1 [MB, Methylene blue, reference compound] |  |  |  |  |  |  |  |  |  |  |  |  |  |  |  |  | IC50 (4T1 cells [5]): 14100 nM; IC50 (4T1 cells [6]): 25700 nM
CCCCCNc1cc2c(c3sccc13)=Nc1ccc(N(CC)CC)cc1S=2Cl (stereo not drawn) [Compound I-4] | 11.09 | 310 | 10400 | 3490 | 4.32 | 440 | 9.05 | 390 | 4.16 | 1320 | 5480 | 701 | 0.5 | 1890 | 3490 | 673 | 
CCN(CC)c1ccc2c(c1)S(Cl)=c1cc(NC)c3ccsc3c1=N2 (stereo not drawn) [Compound I-2] | 21.66 | 320 | 17600 | 6930 | 23.49 | 130 | 14.2 | 140 | 24.41 | 400 | 9790 | 698 | 0.5 | 3140 | 2030 | 671 | 
